Reference: patent publication US11051515B2, “3-acyl-benzamides and their use as herbicides” (Bayer Aktiengesellschaft, priority 2017, dated 2021)

Legend:
ALOMY [1] = experiment: Pre-emergence action against ALOMY; assay type: in vivo, Alopecurus myosuroides; conditions: dosage 320 g/ha; pre-emergence; scored visually after 3 weeks vs untreated controls; 100% = plants have died, 0% = like control plants
In short: (§1)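 Seeds sown in sandy loam in wood-fiber pots and covered with soil. Greenhouse growth; visual damage scored after 3 weeks versus untreated controls (100% = dead, 0% = like control).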

AVEFA [2] = experiment: Pre-emergence action against AVEFA; assay type: in vivo, Avena fatua; conditions: dosage 320 g/ha, scored visually after 3 weeks vs untreated controls
In short: as §1

CYPES [3] = experiment: Pre-emergence action against CYPES; assay type: in vivo, Cyperus esculentus; conditions: pre-emergence, dosage 320 g/ha, scored visually after 3 weeks vs untreated controls
In short: as §1

ECHCG [4] = experiment: Pre-emergence action against ECHCG; assay type: in vivo, Echinochloa crus-galli; conditions: pre-emergence, dosage 320 g/ha, scored visually after 3 weeks vs untreated controls
In short: as §1

LOLRI [5] = experiment: Pre-emergence action against LOLRI; assay type: in vivo, Lolium rigidum; conditions: dosage 320 g/ha, scored visually after 3 weeks vs untreated controls
In short: as §1

SETVI [6] = experiment: Pre-emergence action against SETVI; assay type: in vivo, Setaria viridis; conditions: pre-emergence, dosage 320 g/ha, scored visually after 3 weeks vs untreated controls
In short: as §1

ABUTH [7] = experiment: Pre-emergence action against ABUTH; assay type: in vivo, Abutilon theophrasti; conditions: pre-emergence, dosage 320 g/ha, scored visually after 3 weeks vs untreated controls
In short: as §1

AMARE [8] = experiment: Pre-emergence action against AMARE; assay type: in vivo, Amaranthus retroflexus; conditions: pre-emergence, dosage 320 g/ha, scored visually after 3 weeks vs untreated controls
In short: as §1

MATIN [9] = experiment: Pre-emergence action against MATIN; assay type: in vivo, Matricaria inodora; conditions: Dosage 320 g/ha, pre-emergence
In short: as §1

PHBPU [10] = experiment: Pre-emergence action against PHBPU; assay type: in vivo, Pharbitis purpurea; conditions: Dosage 320 g/ha, pre-emergence
In short: as §1

POLCO [11] = experiment: Pre-emergence action against POLCO; assay type: in vivo, Polygonum convolvulus; conditions: Dosage 320 g/ha, pre-emergence
In short: as §1

STEME [12] = experiment: Pre-emergence action against STEME; assay type: in vivo, Stellaria media; conditions: Dosage 320 g/ha, pre-emergence
In short: as §1

VIOTR [13] = experiment: Pre-emergence action against VIOTR; assay type: in vivo, Viola tricolor; conditions: Dosage 320 g/ha, pre-emergence
In short: as §1

VERPE [14] = experiment: Pre-emergence action against VERPE; assay type: in vivo, Veronica persica; conditions: Dosage 320 g/ha, pre-emergence
In short: as §1

HORMU = experiment: Pre-emergence action against HORMU; assay type: in vivo, Hordeum murinum; conditions: Dosage 320 g/ha
In short: as §1

ALOMY [15] = experiment: Post-emergence action against ALOMY; assay type: in vivo, Alopecurus myosuroides; conditions: Dosage 80 g/ha, post-emergence
In short: (§2)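 Weeds grown in sandy loam in greenhouse, treated at one-leaf stage (2–3 weeks after sowing) with WP or EC formulations sprayed as aqueous suspension/emulsion at 600 to […] water with 0.2% wetting agent. Visual rating after about 3 weeks versus untreated controls, as % herbicidal action (100% = plants dead, 0% = like control).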

CYPES [16] = experiment: Post-emergence action against CYPES; assay type: in vivo, Cyperus esculentus; conditions: post-emergence, dosage 80 g/ha, visual assessment about 3 weeks after treatment vs untreated controls
In short: as §2

ECHCG [17] = experiment: Post-emergence action against ECHCG; assay type: in vivo, Echinochloa crus-galli; conditions: post-emergence, dosage 80 g/ha, visual assessment about 3 weeks after treatment vs untreated controls
In short: as §2

LOLRI [18] = experiment: Post-emergence action against LOLRI; assay type: in vivo, Lolium rigidum; conditions: dosage 80 g/ha, visual assessment about 3 weeks after treatment vs untreated controls
Experimental: Seeds of monocotyledonous and dicotyledonous weed and crop plants are laid out in sandy loam soil in wood-fiber pots, covered with soil and cultivated in a greenhouse under good growth conditions. 2 to 3 weeks after sowing, the test plants are treated at the one-leaf stage. The compounds of the invention, formulated in the form of wettable powders (WP) or as emulsion concentrates (EC), are then sprayed onto the green parts of the plants in the form of an aqueous suspension or emulsion at a water application rate equating to […], with addition of 0.2% wetting agent. After the test plants have been left to stand in the greenhouse under optimal growth conditions for about 3 weeks, the action of the preparations is assessed visually in comparison to untreated controls (herbicidal action in percent (%): 100% activity=the plants have died, 0% activity=like control plants). […] At the same time, inventive compounds leave Gramineae crops such as barley, wheat, rye, millet/Sorghum, corn or rice virtually undamaged when applied post-emergence, even at high active ingredient dosages. In addition, some substances are also harmless to dicotyledonous crops such as soya, cotton, oilseed rape, sugar beet or potatoes. Some of the compounds according to the invention have high selectivity and are therefore suitable for controlling unwanted vegetation in agricultural crops by the post-emergence method. The data of Tables B18 to B34 below illustrate, in an exemplary manner, the […] herbicidal action of the compounds according to the invention, the herbicidal activity being stated in percent.

SETVI [19] = experiment: Post-emergence action against SETVI; assay type: in vivo, Setaria viridis; conditions: post-emergence, dosage 80 g/ha, visual assessment about 3 weeks after treatment vs untreated controls
In short: as §2

ABUTH [20] = experiment: Post-emergence action against ABUTH; assay type: in vivo, Abutilon theophrasti; conditions: post-emergence, dosage 80 g/ha, visual assessment about 3 weeks after treatment vs untreated controls
In short: as §2

AMARE [21] = experiment: Post-emergence action against AMARE; assay type: in vivo, Amaranthus retroflexus; conditions: post-emergence, dosage 80 g/ha, visual assessment about 3 weeks after treatment vs untreated controls
In short: as §2

MATIN [22] = experiment: Post-emergence action against MATIN; assay type: in vivo, Matricaria inodora; conditions: post-emergence, dosage 80 g/ha, visual assessment about 3 weeks after treatment vs untreated controls
In short: as §2

PHBPU [23] = experiment: Post-emergence action against PHBPU; assay type: in vivo, Pharbitis purpurea; conditions: post-emergence, dosage 80 g/ha
In short: as §2

POLCO [24] = experiment: Post-emergence action against POLCO; assay type: in vivo, Polygonum convolvulus; conditions: post-emergence, dosage 80 g/ha
In short: as §2

STEME [25] = experiment: Post-emergence action against STEME; assay type: in vivo, Stellaria media; conditions: post-emergence, dosage 80 g/ha
In short: as §2

VIOTR [26] = experiment: Post-emergence action against VIOTR; assay type: in vivo, Viola tricolor; conditions: post-emergence, dosage 80 g/ha
In short: as §2

VERPE [27] = experiment: Post-emergence action against VERPE; assay type: in vivo, Veronica persica; conditions: dosage 80 g/ha
In short: as §2

AVEFA [28] = experiment: Post-emergence action against AVEFA; assay type: in vivo, Avena fatua; conditions: post-emergence, dosage 80 g/ha, visual assessment about 3 weeks after treatment vs untreated controls
In short: as §2

## CC1CC1C(=O)c1c(C(F)(F)F)ccc(C(=O)Nc2nnnn2C)c1Cl (centres unmarked) [1-148]
ALOMY [1]
  Pre-emergence action against ALOMY (herbicidal activity in percent): 100%
AVEFA [2]
  Pre-emergence action against AVEFA (herbicidal activity): 90%
CYPES [3]
  Pre-emergence action against CYPES (herbicidal activity): 90%
ECHCG [4]
  Pre-emergence action against ECHCG (herbicidal activity): 100%
LOLRI [5]
  Pre-emergence action against LOLRI (herbicidal activity): 100%
SETVI [6]
  SETVI (Table B8, pre-emergence herbicidal activity): 100%
ABUTH [7]
  Pre-emergence action against ABUTH (herbicidal activity): 100%
AMARE [8]
  Pre-emergence action against AMARE (herbicidal activity): 100%
MATIN [9]
  Pre-emergence action against MATIN: 100%
PHBPU [10]
  Pre-emergence action against PHBPU: 100%
POLCO [11]
  Pre-emergence action against POLCO: 90%
STEME [12]
  Pre-emergence action against STEME: 100%
VIOTR [13]
  Pre-emergence action against VIOTR: 100%
VERPE [14]
  Pre-emergence action against VERPE: 100%
HORMU
  Pre-emergence action against HORMU: 80%
ALOMY [15]
  Post-emergence action against ALOMY: 80%
CYPES [16]
  Post-emergence action against CYPES (herbicidal action in percent): 90%
ECHCG [17]
  Post-emergence action against ECHCG (herbicidal action in percent): 100%
LOLRI [18]
  Post-emergence action against LOLRI (herbicidal action in percent): 80%
SETVI [19]
  Post-emergence action against SETVI (herbicidal action in percent): 100%
ABUTH [20]
  Post-emergence action against ABUTH (herbicidal action in percent): 100%
AMARE [21]
  Post-emergence action against AMARE (herbicidal action in percent): 100%
MATIN [22]
  Post-emergence action against MATIN (herbicidal action in percent): 100%
PHBPU [23]
  Post-emergence action against PHBPU: 100
POLCO [24]
  Post-emergence action against POLCO: 80
STEME [25]
  Post-emergence action against STEME: 100
VIOTR [26]
  Post-emergence action against VIOTR: 90
VERPE [27]
  Post-emergence action against VERPE: 100

## CCn1nnnc1NC(=O)c1ccc(C(F)F)c(C(=O)C2CC2)c1Cl [2-168]
ALOMY [1]
  Pre-emergence action against ALOMY (herbicidal activity in percent): 100%
AVEFA [2]
  Pre-emergence action against AVEFA (herbicidal activity): 90%
ECHCG [4]
  Pre-emergence action against ECHCG (herbicidal activity): 100%
LOLRI [5]
  Pre-emergence action against LOLRI (herbicidal activity): 100%
SETVI [6]
  SETVI (Table B8, pre-emergence herbicidal activity): 100%
ABUTH [7]
  Pre-emergence action against ABUTH (herbicidal activity): 100%
AMARE [8]
  Pre-emergence action against AMARE (herbicidal activity): 100%
MATIN [9]
  Pre-emergence action against MATIN: 100%
PHBPU [10]
  Pre-emergence action against PHBPU: 80%
POLCO [11]
  Pre-emergence action against POLCO: 90%
STEME [12]
  Pre-emergence action against STEME: 100%
VIOTR [13]
  Pre-emergence action against VIOTR: 100%
VERPE [14]
  Pre-emergence action against VERPE: 100%
HORMU
  Pre-emergence action against HORMU: 90%
ALOMY [15]
  Post-emergence action against ALOMY: 100%
AVEFA [28]
  Post-emergence action against AVEFA (herbicidal action in percent): 100%
CYPES [16]
  Post-emergence action against CYPES (herbicidal action in percent): 100%
ECHCG [17]
  Post-emergence action against ECHCG (herbicidal action in percent): 100%
LOLRI [18]
  Post-emergence action against LOLRI (herbicidal action in percent): 100%
SETVI [19]
  Post-emergence action against SETVI (herbicidal action in percent): 100%
ABUTH [20]
  Post-emergence action against ABUTH (herbicidal action in percent): 100%
AMARE [21]
  Post-emergence action against AMARE (herbicidal action in percent): 100%
MATIN [22]
  Post-emergence action against MATIN (herbicidal action in percent): 100%
PHBPU [23]
  Post-emergence action against PHBPU: 100
POLCO [24]
  Post-emergence action against POLCO: 100
STEME [25]
  Post-emergence action against STEME: 100
VIOTR [26]
  Post-emergence action against VIOTR: 100
VERPE [27]
  Post-emergence action against VERPE: 80
